Reference: patent publication US20150268223A1, “MICR[…]-CULTURE SYSTEMS AS INFECTIOUS DISEASE ANALYSIS PLATFORMS” (Massachusetts Institute of Technology, priority 2008, published 2015)

System: retroviral pseudoparticles bearing the E1/E2 glycoproteins of the Hepatitis C virus (HCV) genotype 1a strain (H77)
Type: cell-based

Structure (SMILES): O=C(O)CN(CCN(CC(=O)O)CC(=O)O)CC(=O)O [EDTA]
- access of micropatterned co-cultures to viral pseudoparticles and virus: dramatically improves access
